Our source for the TGI and GI50 values is PubChem BioAssay (NCI).

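Five compound concentrations were applied to cells in 96-well plates for 48 hours; endpoints were derived by simple linear interpolation of the resulting dose-response curve. GI50 = concentration required for 50% inhibition of growth. TGI: total growth inhibition.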 Where only a bound is given, the exact number is not on record here.

Some test systems named below: COLO 205 colon; K-562 leukemia; LOX IMVI melanoma; MALME-3M melanoma; SF-295 CNS; SK-MEL-28 melanoma; SNB-19 CNS; UACC-257 melanoma; UACC-62 melanoma.
Experiment in all cases: DTP human tumour cell line panel, 48 h

`CCN(CC)CC(=O)/C=C/c1ccc(C)cc1`: the TGI with COLO 205 colon was 34.5 µM; in the test with K-562 leukemia, over 100 µM; with LOX IMVI melanoma, 34.4 µM; in the test on MALME-3M melanoma, 41.2 µM; with SF-295 CNS, 88.1 µM; with SK-MEL-28 melanoma it was 43 µM. Also, the TGI is over 100 µM in the test with SNB-19 CNS, 46 µM in the test on UACC-257 melanoma and 32.5 µM with UACC-62 melanoma.

`NC1CCCCC1N.O=C([O-])P(=O)([O-])[O-].[Na+].[Pt+4]` (stereo not drawn): the GI50 in the test with K-562 leukemia was over 100 µM; in the test with LOX IMVI melanoma it was over 100 µM; in the test with MALME-3M melanoma it was 84.3 µM; in the test on SF-295 CNS, over 100 µM; with SK-MEL-28 melanoma, over 100 µM; in the test with SNB-19 CNS, over 100 µM. Moreover, the GI50 in the test on UACC-257 melanoma and with UACC-62 melanoma was over 100 µM throughout. The TGI in the test with K-562 leukemia, with LOX IMVI melanoma, in the test on MALME-3M melanoma, in the test on SF-295 CNS, in the test on SK-MEL-28 melanoma and in the test with SNB-19 CNS was over 100 µM throughout. In addition, the TGI with UACC-257 melanoma and in the test on UACC-62 melanoma was over 100 µM in each case.

Consider `COc1cc(N=Nc2ccccc2)cc(/C=N\[N-]C(N)=S)c1[O-].COc1cc(N=Nc2ccccc2)cc(/C=N\[N-]C(N)=S)c1[O-].[Fe+4]`, for which the GI50 in the test with COLO 205 colon was 24.3 µM; in the test with K-562 leukemia, 16.1 µM; in the test on MALME-3M melanoma, 59.6 µM; in the test on SK-MEL-28 melanoma, 24.4 µM; in the test with SNB-19 CNS, 44.4 µM; in the test with UACC-257 melanoma, over 100 µM. In addition, the GI50 in the test with UACC-62 melanoma is 0.378 µM. The TGI was 61.3 µM in the test with COLO 205 colon; over 100 µM in the test on K-562 leukemia; over 100 µM in the test with MALME-3M melanoma; over 100 µM in the test with SK-MEL-28 melanoma; over 100 µM in the test on SNB-19 CNS; over 100 µM with UACC-257 melanoma. Also, the TGI with UACC-62 melanoma was over 100 µM.

As to `O=C(O)CNS(=O)(=O)c1ccc(NC(=O)c2ccc(F)cc2)cc1`, the TGI in the test with COLO 205 colon, with K-562 leukemia, with LOX IMVI melanoma, in the test with MALME-3M melanoma, in the test on SF-295 CNS and with SK-MEL-28 melanoma was over 100 µM in each case. Also, the TGI in the test on SNB-19 CNS, in the test on UACC-257 melanoma and in the test on UACC-62 melanoma was over 100 µM throughout.

As for `CC1=C(SCc2ccccc2)C(=O)c2ccccc2C1=O`, the TGI in the test on COLO 205 colon was 38.9 µM; in the test on K-562 leukemia it was over 100 µM; in the test with LOX IMVI melanoma it was 38.2 µM; with MALME-3M melanoma, 29.2 µM; with SF-295 CNS, 32.5 µM; in the test with SK-MEL-28 melanoma, 36.5 µM. Besides, the TGI turned out to be 31.4 µM in the test on UACC-257 melanoma and 31.8 µM with UACC-62 melanoma.

As for `O=C1CCC2CCc3cccc4oc1c2c34` (stereo not drawn), the TGI in the test with COLO 205 colon is over 100 µM; in the test with K-562 leukemia, over 100 µM; with LOX IMVI melanoma, over 100 µM; in the test with SF-295 CNS it was 84.1 µM; with SK-MEL-28 melanoma, over 100 µM; with SNB-19 CNS it was over 100 µM. For the same molecule, the TGI in the test on UACC-257 melanoma and in the test on UACC-62 melanoma was over 100 µM in each case.

For `O=CN1N=C(c2ccc(Nc3ccnc4cc(Cl)ccc34)cc2)CC1c1ccccc1` (stereo not drawn), the GI50 was 2.21 µM in the test with COLO 205 colon; 1.61 µM with LOX IMVI melanoma; 4.21 µM in the test with MALME-3M melanoma; 2.41 µM in the test with SF-295 CNS; 8.35 µM with SK-MEL-28 melanoma; 5.13 µM with SNB-19 CNS. Also, the GI50 in the test on UACC-257 melanoma was 10.1 µM; in the test with UACC-62 melanoma it was 1.55 µM. The TGI was 6.15 µM in the test on COLO 205 colon; 3.33 µM with LOX IMVI melanoma; over 100 µM in the test with MALME-3M melanoma; 8.91 µM in the test on SF-295 CNS; 77.7 µM in the test with SK-MEL-28 melanoma; over 100 µM in the test with SNB-19 CNS. Further, the results for the TGI in the test with UACC-257 melanoma and in the test on UACC-62 melanoma were over 100 µM and 4.16 µM, respectively.

Take `COc1ccc(C(O)c2cc3c(N)c(C(=O)Nc4cccc(Cl)c4C)sc3nc2C)cc1` (stereo not drawn): the GI50 with K-562 leukemia is 0.198 µM; in the test on LOX IMVI melanoma it was 0.838 µM; in the test on MALME-3M melanoma, 0.809 µM; with SF-295 CNS, 0.881 µM; in the test with SK-MEL-28 melanoma it was 0.854 µM; with SNB-19 CNS, 0.943 µM. Besides, the figures for the GI50 in the test with UACC-257 melanoma and in the test on UACC-62 melanoma were 1 µM and 0.896 µM, respectively. For the same molecule, the TGI turned out to be 1.45 µM in the test on K-562 leukemia; 1.55 µM in the test with LOX IMVI melanoma; 1.51 µM in the test with MALME-3M melanoma; 1.66 µM in the test with SF-295 CNS; 1.58 µM with SK-MEL-28 melanoma; 1.92 µM with SNB-19 CNS. In addition, the TGI with UACC-257 melanoma stood at 2.02 µM; in the test on UACC-62 melanoma, 1.67 µM.

`Oc1ccc2occ3c2c1CCC3`: the TGI with COLO 205 colon, in the test on K-562 leukemia, in the test on LOX IMVI melanoma, with SF-295 CNS, with SK-MEL-28 melanoma and in the test with SNB-19 CNS was over 100 µM throughout. Further, the TGI with UACC-257 melanoma and in the test with UACC-62 melanoma was over 100 µM in each case.

Turning to `NC(N)=N/N=C/c1c(-c2cccs2)nc2sccn12`, the GI50 in the test with K-562 leukemia was 6.49 µM; with LOX IMVI melanoma, 14 µM; with SF-295 CNS it was 11.5 µM; in the test on SK-MEL-28 melanoma, 12.6 µM; with SNB-19 CNS it was 14.8 µM; with UACC-257 melanoma, 20.3 µM. In addition, the GI50 in the test with UACC-62 melanoma is 14.8 µM. For the same molecule, the TGI with K-562 leukemia is 21.5 µM; in the test on LOX IMVI melanoma, 27 µM; in the test with SF-295 CNS, 23.6 µM; in the test with SK-MEL-28 melanoma, 25.3 µM; with SNB-19 CNS it was 28.6 µM; in the test with UACC-257 melanoma, 37.7 µM. This molecule gave a TGI in the test on UACC-62 melanoma of 28.3 µM.
